In patent EP4741383A1, “COMPOUND AND USE THEREOF AS ANTI-CANCER DRUG” (Tyligand Bioscience (Shanghai) Limited, priority 2023, dated 2025):
Like-named read-outs stand apart in the source and are kept apart here.

Test: Rat PK study (IV 1 mg/kg and PO 5 mg/kg)
Type: in vivo, male SD rats
Details: for AUC(0-t) / clearance / half-life / Vd / Cmax: male, SD, rat, plasma; for clearance: read-out: IV Cl; for Vd: read-out: IV Vz
Description: According to standard methods for rat PK studies in this field, the rat PK tests for the representative compounds of this disclosure and the positive control compound (11a-1) were conducted as follows.
Specifically, six male SD rats (6-8 weeks old, weighing 200 ± 20 g, purchased from Vital River Laboratories) were randomly divided into two groups of three rats each, for intravenous (IV) and oral gavage (PO) administration, respectively.
For the intravenous injection group: the test compound was weighed according to the administration dose (1 mg/kg), dissolved using the solvent listed in the table below to obtain a clear solution of 1 mg/mL, and administered to the rats via tail vein injection at a dose of 1 mg/kg. […]
Blood was collected via jugular vein puncture at various time points: 0.083, 0.25, 0.5, 1, 2, 4, 6, 8, and 24 hours. 0.2 mL of whole blood was collected at each time point, placed in a 1.5 mL anticoagulant tube containing EDTA, and placed on a sample plate containing wet ice until centrifugation; after centrifugation at 8000 rpm for 10 minutes at 4°C, 0.1 mL of plasma sample was collected and stored in an […] cryovial at -20°C until analysis.
Preparation of the stock solution of the test compound: 1 mg of the test compound was accurately weighed, dissolved in 1 mL of DMSO to prepare a 1 mg/mL stock solution S1, and stored in a 4°C refrigerator until use.
Preparation of the internal standard working solution: 0.1 mL of tolbutamide (2 mg/mL) internal standard stock solution was pipetted into 1000 mL of acetonitrile to prepare a 200 ng/mL internal standard working solution, which is used as a protein precipitant in sample pretreatment. The prepared internal standard working solution was stored at 4°C and valid for 12 months.
Preparation of the standard curve and quality control sample working solutions: 50 µL of the 1 mg/mL test compound DMSO stock solution S1 was diluted with 950 µL of 100% methanol solution to obtain a working solution with a concentration of 50000 ng/mL. Then, the 50000 ng/mL working solution was serially diluted with 100% methanol solution to obtain a series of standard curve working solutions with concentrations of 10, 20, 50, 100, 500, 1000, 5000, 10000, 20000, and 50000 ng/mL. 40 µL of the 1 mg/mL test compound DMSO stock solution S1 was diluted with 960 µL of 100% methanol solution to obtain a quality control sample working solution with a concentration of 40000 ng/mL. An appropriate amount of this working solution was diluted appropriately to prepare quality control sample working solutions with concentrations of 8000 and 16000 ng/mL. 60 µL of the 50 ng/mL test compound DMSO standard curve working solution was diluted with 40 µL of 100% methanol solution to obtain a quality control sample working solution with a concentration of 30 ng/mL.
Plasma sample treatment: standard curve and quality control samples for the test compound in plasma were prepared by diluting 5 µL of working solutions of different concentrations of the test compound for the standard curve and quality control samples in 45 µL of blank rat plasma, resulting in final concentrations of 1, 2, 5, 10, 50, 100, 500, 1000, 2000, and 5000 ng/mL for the standard curve and final concentrations of 3, 800, 1600, and 4000 ng/mL for the quality control samples.
Plasma sample pretreatment: 50 µL of the plasma sample was transferred to a 96-well plate, added with 500 µL of acetonitrile containing 200 ng/mL tolbutamide as an internal standard for protein precipitation, and centrifuged at 4000 rpm for 20 minutes at 2-8 °C. 300 µL of the supernatant was transferred to a new labeled 96-well plate, mixed thoroughly with 300 µL of 0.1% formic acid in water, and injected 10 µL into LC-MS/MS (API-4000 Qtrap-Shimadzu Controller-CBM20A).
The internal standard method was used for sample analysis. Data acquisition and analysis were performed using Analyst 1.6.3. […]

[1] = 1 mg/kg, IV, dose 1 mpk, read-out: IV AUC 0->t
[2] = 1 mg/kg, IV, dose 1 mpk, read-out: IV T1/2 (converted)
[3] = 5 mg/kg, PO, dose 5 mpk, read-out: PO AUC 0->t
[4] = 5 mg/kg, PO, dose 5 mpk, read-out: PO T1/2 (converted)

Row | PO F (PO, dose 10 mpk (IV 1 mpk)) [%] | AUC(0-t) [1] [ng·h/mL] | clearance (1 mg/kg, IV, dose 1 mpk) [mL/min/kg] | half-life [2] [h] | Vd (1 mg/kg, IV, dose 1 mpk) [L/kg] | Cmax (10 mg/kg, PO, dose 10 mpk) [ng/mL] | AUC(0-t) (10 mg/kg, PO, dose 10 mpk, read-out: PO AUC 0->t) [ng·h/mL] | half-life (10 mg/kg, PO, dose 10 mpk, read-out: PO T1/2 (converted)) [h] | PO F (PO, dose 5 mpk (IV 1 mpk)) [%] | Cmax (5 mg/kg, PO, dose 5 mpk) [ng/mL] | AUC(0-t) [3] [ng·h/mL] | half-life [4] [h] | SMILES
1 | 0.07 | 4230 | 4 | 4.06 | 1.42 | 44.2 | 30 | 1.1 | – | – | – | – | Cn1c(-c2cccc(NC(=O)C(=O)Nc3ccc(-c4ccsc4)cc3)c2)c(I)c2cc(C(=O)O)c(O)cc21 [Example 11a-1, reference compound]
2 | – | 2840 | 5.45 | 8.49 | 4.01 | – | – | – | 52.7 | 1140 | 8010 | 3.17 | O=C(Nc1ccc(-c2cc3cc(F)c(-c4nnn[nH]4)cc3n2C2CCC2)cc1)C(=O)Nc1ccc(N2CCC(CO)CC2)cc1 [Example 23]
3 | – | 1380 | 12.6 | 1.63 | 1.57 | – | – | – | 30.5 | 150 | 2100 | 4.31 | CC1(n2c(-c3ccc(NC(=O)C(=O)Nc4ccc(N5CCC6(CCOC6)CC5)cc4)cc3)cc3cc(F)c(-c4nnn[nH]4)cc32)CCC1 [Example 68]
